Measured values from PubChem BioAssay (NCI).
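Grown in 96-well plates, cells were treated for 48 hours with each compound at five concentrations. Insufficient inhibition: endpoint recorded as highest concentration tested. Here, GI50 denotes the concentration required for 50% inhibition of growth. Definition used: TGI = concentration required for complete inhibition of growth.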

Experiments:
Experiment in all cases: NCI-60 cell line screen, 48 h
MDA-MB-231 breast = system: MDA-MB-231 breast
MDA-MB-435 = system: MDA-MB-435
HOP-92 NSCLC = system: HOP-92 NSCLC
OVCAR-3 ovarian = system: OVCAR-3 ovarian
OVCAR-8 ovarian = system: OVCAR-8 ovarian
NCI/ADR-RES ovarian = system: NCI/ADR-RES ovarian
HCC-2998 colon = system: HCC-2998 colon
BT-549 breast = system: BT-549 breast
SN12C renal = system: SN12C renal
SK-MEL-28 melanoma = system: SK-MEL-28 melanoma
SF-295 CNS = system: SF-295 CNS
NCI-H522 lung = system: NCI-H522 lung
SW-620 colon = system: SW-620 colon
UO-31 renal = system: UO-31 renal
SK-MEL-2 melanoma = system: SK-MEL-2 melanoma
NCI-H460 lung = system: NCI-H460 lung
HCT-15 colon = system: HCT-15 colon
HCT-116 colon = system: HCT-116 colon
SK-MEL-5 melanoma = system: SK-MEL-5 melanoma
NCI-H226 lung = system: NCI-H226 lung
M14 melanoma = system: M14 melanoma
MCF7 breast = system: MCF7 breast
A549 NSCLC = system: A549 NSCLC
HOP-62 NSCLC = system: HOP-62 NSCLC
LOX IMVI melanoma = system: LOX IMVI melanoma
SK-OV-3 ovarian = system: SK-OV-3 ovarian
EKVX NSCLC = system: EKVX NSCLC
SF-539 CNS = system: SF-539 CNS
HS 578T breast = system: HS 578T breast
SF-268 CNS = system: SF-268 CNS
UACC-257 melanoma = system: UACC-257 melanoma
CAKI-1 renal = system: CAKI-1 renal
NCI-H23 lung = system: NCI-H23 lung
T-47D breast = system: T-47D breast
TK-10 renal = system: TK-10 renal
A498 renal = system: A498 renal
UACC-62 melanoma = system: UACC-62 melanoma
OVCAR-4 ovarian = system: OVCAR-4 ovarian
ACHN renal = system: ACHN renal
HT29 colon = system: HT29 colon
OVCAR-5 ovarian = system: OVCAR-5 ovarian
MALME-3M melanoma = system: MALME-3M melanoma
RPMI-8226 leukemia = system: RPMI-8226 leukemia
786-0 renal = system: 786-0 renal
SNB-19 CNS = system: SNB-19 CNS
IGROV1 ovarian = system: IGROV1 ovarian
RXF 393 renal = system: RXF 393 renal
COLO 205 colon = system: COLO 205 colon
PC-3 prostate = system: PC-3 prostate
DU-145 prostate = system: DU-145 prostate
MOLT-4 leukemia = system: MOLT-4 leukemia
CCRF-CEM leukemia = system: CCRF-CEM leukemia
U251 CNS = system: U251 CNS
K-562 leukemia = system: K-562 leukemia
SR leukemia = system: SR leukemia
SNB-75 CNS = system: SNB-75 CNS
KM12 colon = system: KM12 colon

## CCCCCCCCCCCCCCCCCCOc1ccccc1CC(=O)NCC[N+]1(C)CCOCC1
MDA-MB-231 breast
  GI50: 2.76 µM
  TGI: 8.34 µM
MDA-MB-435
  GI50: 7.85 µM
  TGI: 32.9 µM
HOP-92 NSCLC
  GI50: 1.03 µM
  TGI: 3.78 µM
OVCAR-3 ovarian
  GI50: 4.43 µM
  TGI: 34.2 µM
OVCAR-8 ovarian
  GI50: 5.56 µM
  TGI: 29.9 µM
NCI/ADR-RES ovarian
  GI50: 18.3 µM
  TGI: 56.8 µM
HCC-2998 colon
  GI50: 2.08 µM
  TGI: 7.09 µM
BT-549 breast
  GI50: 3.57 µM
  TGI: 74 µM
SN12C renal
  GI50: 2.26 µM
  TGI: 6.21 µM
SK-MEL-28 melanoma
  GI50: 7.69 µM
  TGI: 49.8 µM
SF-295 CNS
  GI50: 4.99 µM
  TGI: 49.2 µM
NCI-H522 lung
  GI50: 1.95 µM
  TGI: 5.05 µM
SW-620 colon
  GI50: 3.76 µM
  TGI: 22.5 µM
UO-31 renal
  GI50: 5.83 µM
  TGI: 37.2 µM
SK-MEL-2 melanoma
  GI50: 13.9 µM
  TGI: 34.6 µM
NCI-H460 lung
  GI50: 3.31 µM
  TGI: 17.4 µM
HCT-15 colon
  GI50: 17.1 µM
  TGI: 66.5 µM
HCT-116 colon
  GI50: 4.71 µM
  TGI: > 100 µM
SK-MEL-5 melanoma
  GI50: 3 µM
  TGI: 16.1 µM
NCI-H226 lung
  GI50: 4.9 µM
  TGI: 89 µM
M14 melanoma
  GI50: 4.32 µM
  TGI: > 100 µM
MCF7 breast
  GI50: 2.71 µM
  TGI: 9.34 µM
A549 NSCLC
  GI50: 4.39 µM
  TGI: 26.3 µM
HOP-62 NSCLC
  GI50: 4.01 µM
  TGI: 26.8 µM
LOX IMVI melanoma
  GI50: 3.51 µM
  TGI: 42.4 µM
SK-OV-3 ovarian
  GI50: 13.9 µM
  TGI: 32.4 µM
EKVX NSCLC
  GI50: 8.62 µM
  TGI: 56.2 µM
SF-539 CNS
  GI50: 3.35 µM
  TGI: 12.8 µM
HS 578T breast
  GI50: 2.38 µM
  TGI: 9.56 µM
SF-268 CNS
  GI50: 2.77 µM
  TGI: 31.2 µM
UACC-257 melanoma
  GI50: 18.9 µM
  TGI: 35.3 µM
CAKI-1 renal
  GI50: 18.4 µM
  TGI: 38.3 µM
NCI-H23 lung
  GI50: 3.03 µM
  TGI: 14.2 µM
T-47D breast
  GI50: 6.85 µM
  TGI: 39.2 µM
TK-10 renal
  GI50: 1.9 µM
  TGI: 5.9 µM
A498 renal
  GI50: 13.4 µM
  TGI: 44 µM
UACC-62 melanoma
  GI50: 4.31 µM
  TGI: 30.7 µM
OVCAR-4 ovarian
  GI50: 6.42 µM
  TGI: 23.3 µM
ACHN renal
  GI50: 16 µM
  TGI: 44.6 µM
HT29 colon
  GI50: 2.05 µM
  TGI: 5.19 µM
OVCAR-5 ovarian
  GI50: 1.89 µM
  TGI: 4.85 µM
MALME-3M melanoma
  GI50: 4.48 µM
  TGI: > 100 µM

## CCCCI(O)OS(=O)(=O)c1ccc(C)cc1
MDA-MB-231 breast
  TGI: > 100 µM
RPMI-8226 leukemia
  TGI: > 100 µM
MDA-MB-435
  TGI: > 100 µM
HOP-92 NSCLC
  TGI: > 100 µM
786-0 renal
  TGI: > 100 µM
SNB-19 CNS
  TGI: > 100 µM
IGROV1 ovarian
  TGI: 73.8 µM
OVCAR-3 ovarian
  TGI: > 100 µM
OVCAR-8 ovarian
  TGI: > 100 µM
RXF 393 renal
  TGI: > 100 µM
NCI/ADR-RES ovarian
  TGI: > 100 µM
HCC-2998 colon
  TGI: > 100 µM
BT-549 breast
  TGI: > 100 µM
COLO 205 colon
  TGI: > 100 µM
SN12C renal
  TGI: > 100 µM
SK-MEL-28 melanoma
  TGI: > 100 µM
PC-3 prostate
  TGI: > 100 µM
SF-295 CNS
  TGI: > 100 µM
NCI-H522 lung
  TGI: 48.9 µM
SW-620 colon
  TGI: > 100 µM
UO-31 renal
  TGI: 55.4 µM
SK-MEL-2 melanoma
  TGI: > 100 µM
HCT-15 colon
  TGI: > 100 µM
HCT-116 colon
  TGI: > 100 µM
SK-MEL-5 melanoma
  TGI: > 100 µM
NCI-H226 lung
  TGI: > 100 µM
M14 melanoma
  TGI: > 100 µM
MCF7 breast
  TGI: > 100 µM
A549 NSCLC
  TGI: > 100 µM
HOP-62 NSCLC
  TGI: > 100 µM
LOX IMVI melanoma
  TGI: 30.8 µM
SK-OV-3 ovarian
  TGI: > 100 µM
EKVX NSCLC
  TGI: > 100 µM
SF-539 CNS
  TGI: > 100 µM
HS 578T breast
  TGI: > 100 µM
SF-268 CNS
  TGI: > 100 µM
UACC-257 melanoma
  TGI: > 100 µM
DU-145 prostate
  TGI: > 100 µM
MOLT-4 leukemia
  TGI: > 100 µM
CAKI-1 renal
  TGI: > 100 µM
CCRF-CEM leukemia
  TGI: 76.3 µM
NCI-H23 lung
  TGI: > 100 µM
T-47D breast
  TGI: > 100 µM
U251 CNS
  TGI: > 100 µM
TK-10 renal
  TGI: > 100 µM
A498 renal
  TGI: > 100 µM
K-562 leukemia
  TGI: > 100 µM
SR leukemia
  TGI: 73.3 µM
UACC-62 melanoma
  TGI: > 100 µM
OVCAR-4 ovarian
  TGI: > 100 µM
SNB-75 CNS
  TGI: > 100 µM
ACHN renal
  TGI: > 100 µM
KM12 colon
  TGI: > 100 µM
HT29 colon
  TGI: > 100 µM
OVCAR-5 ovarian
  TGI: > 100 µM
